Measured values from BindingDB's records for doi:10.7270/Q2WQ028B (Vanderbilt Screening Center For Gpcrs, Ion Channels and …, 2010).

molecular target: T1, G protein-activated inward rectifier potassium channel 1 (Rattus norvegicus, UniProt P63251); test: alpha2C-dependent GIRK activation, antagonist reversal – cell-based, thallium flux, with rauwolscine, mechanism study for alpha2C adrenergic receptor project, dose response (AID 435016); details: inactive by the depositor's call
T1 sequence (P63251 whole entry): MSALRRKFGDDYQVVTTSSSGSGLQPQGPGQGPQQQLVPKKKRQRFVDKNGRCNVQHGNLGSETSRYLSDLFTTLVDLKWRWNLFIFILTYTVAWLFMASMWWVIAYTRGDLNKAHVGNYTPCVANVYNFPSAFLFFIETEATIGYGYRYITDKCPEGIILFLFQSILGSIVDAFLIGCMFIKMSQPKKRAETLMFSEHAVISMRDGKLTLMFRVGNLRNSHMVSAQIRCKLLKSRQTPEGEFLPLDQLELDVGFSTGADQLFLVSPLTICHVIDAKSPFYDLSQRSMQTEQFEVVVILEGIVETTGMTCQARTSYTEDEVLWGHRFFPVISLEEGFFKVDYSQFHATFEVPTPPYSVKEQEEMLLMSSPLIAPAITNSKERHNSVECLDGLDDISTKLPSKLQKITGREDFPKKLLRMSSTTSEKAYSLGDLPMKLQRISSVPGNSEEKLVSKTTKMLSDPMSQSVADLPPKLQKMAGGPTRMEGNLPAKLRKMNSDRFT

SMILES	EC50 [µM]
CCOC(=O)c1ccc(NC(=O)NC(C)C2CCCO2)cc1 (stereo not drawn)	41.4
CCSc1nnc(NC(=O)NC(CC)(C(F)(F)F)C(F)(F)F)s1 [1-(5-ethylsulfanyl-1,3,4-thiadiazol-2-yl)-3-[1,1,1-trifluoro-2-(trifluoromethyl)butan-2-yl]urea]	2.29
O=c1c(-c2ccc3c(c2)OCCO3)c(C(F)(F)F)oc2cc(O)cc(O)c12 [3-(2,3-dihydro-1,4-benzodioxin-6-yl)-5,7-bis(oxidanyl)-2-(trifluoromethyl)chromen-4-one]	12.6
